Measured values taken from US4308276A, “Inhibiting lipogenesis with benzoxathiincarboxamides” (Shell Oil Company, priority 1978, dated 1981).

Test system: swine adipose tissue
Experiment: Inhibition of lipogenesis (uptake of radioactive carbon from glucose-U^14 C into lipid) in swine adipose tissue slices
Type: cell-based
Settings: 100 micrograms per milliliter, 37° C., 2 hours, 5% DMSO, with insulin, triplicate
Description: The manner in which they cause this effect is not known with certainty; it is believed that they interfere with the synthesis of fatty acids in the tissues. Their effectiveness for this purpose has been ascertained by immersing samples of swine adipose tissue in a liquid medium containing radioactive glucose and the test chemical for a period of time, then isolating the lipid from the treated tissue and determining the up-take of the radioactive carbon by means of scintillation counting techniques. These tests were conducted in swine adipose tissue because in swine, the primary site of lipogenesis--i.e., fatty acid synthesis--appears to be adipose tissue.
Described in more detail, the tests were conducted according to the following general procedure.
150 milligrams of slices of swine adipose tissue were incubated at 37° C. for 2 hours with shaking in 3 milliliters of Krebs-Ringer bicarbonate solution containing one-half the normal calcium ion concentration, 60 micromoles of glucose, 0.5 micro-Curie of glucose-U^14 C, and 300 microunits of insulin, and 5% dimethyl sulfoxide (DMSO). The test compounds were added as a solution or suspension in DMSO and were present at a concentration of 100 micrograms per milliliter of the incubation mixture.
The incubation was terminated by addition of 0.25 milliliter of 1 N sulfuric acid. The resulting mixture was extracted with a total of 25 milliliters of chloroform:methanol (2:1, v/v). The extracts were washed according to Folch et al. (J. Biol. Chem., 226, 497-509, (1957)), air dried, and counted in a liquid scintillation counter with 15 milliliters of counting fluid (two parts toluene containing 0.4% w/v New England Nuclear Omnifluor: 1 part Triton X-100). The tests were conducted in triplicate and were accompanied by control tests in which all ingredients,proportions and conditions were the same except that no test compound was included. From the data obtained were calculated the percent inhibition of lipid synthesis by the test compound in each case. The data obtained from the tests are set out in Table 1, as the percent inhibition of lipogenesis compared to the results obtained in the control tests wherein only the test compound was omitted.

SMILES	Percent Inhibition (of lipogenesis compared to control tests)
C=CCNC(=O)C1CSc2ccccc2O1 (centres unmarked) [Compound 1, 2,3-Dihydro-N-(2-propenyl)-1,4-benzoxathiin-2-carboxamide]	63%
C=CCNC(=O)C1CSc2cc(C)ccc2O1 (centres unmarked) [Compound 2, 2,3-Dihydro-6-methyl-N-(2-propenyl)-1,4-benzoxathiin-2-carboxamide]	63%
C=CCNC(=O)C1CSc2cc(Cl)ccc2O1 (centres unmarked) [Compound 3, 6-Chloro-2,3-dihydro-N-(2-propenyl)-1,4-benzoxathiin-2-carboxamide]	54%
C=CCNC(=O)C1CSc2cc(C(F)(F)F)ccc2O1 (centres unmarked) [Compound 4, 6-(Trifluoromethyl)-2,3-dihydro-N-(2-propenyl)-1,4-benzoxathiin-2-carboxamide]	30%
C=CCNC(=O)C1CSc2cc([N+](=O)[O-])ccc2O1 (centres unmarked) [Compound 5, 6-Nitro-2,3-dihydro-N-(2-propenyl)-1,4-benzoxathiin-2-carboxamide]	45%
C=CCNC(=O)C1CSc2cc(N)ccc2O1 (centres unmarked) [Compound 6, 6-Amino-2,3-dihydro-N-(2-propenyl)-1,4-benzoxathiin-2-carboxamide]	29%
C=CCNC(=O)C1CSc2cc(NS(C)(=O)=O)ccc2O1 (centres unmarked) [Compound 7, 6-Methylsulfonamido-3,4-dihydro-N-(2-propenyl)-1,4-benzoxathiin-2-carboxamide]	46%
C=CCNC(=O)C1CSc2ccc(C)cc2O1 (centres unmarked) [Compound 8, 2,3-Dihydro-7-methyl-N-(2-propenyl)-1,4-benzoxathiin-2-carboxamide]	26%
